The source made the active and inactive calls. No cut-off for these calls is given here.
Key:
[1] = target: T1, Adenosine receptor A1 (Homo sapiens) (UniProt P30542); experiment: Allosteric modulation at human adenosine A1 receptor expressed in CHO FlpIn cells assessed as increase in EC50 concentration of N(6)-(R-phenylisopropyl)adenosine receptor agonist-induced ERK1/2 phosphorylation at 3 uM relative to control; assay type: functional, cell-based
T1 sequence (whole entry): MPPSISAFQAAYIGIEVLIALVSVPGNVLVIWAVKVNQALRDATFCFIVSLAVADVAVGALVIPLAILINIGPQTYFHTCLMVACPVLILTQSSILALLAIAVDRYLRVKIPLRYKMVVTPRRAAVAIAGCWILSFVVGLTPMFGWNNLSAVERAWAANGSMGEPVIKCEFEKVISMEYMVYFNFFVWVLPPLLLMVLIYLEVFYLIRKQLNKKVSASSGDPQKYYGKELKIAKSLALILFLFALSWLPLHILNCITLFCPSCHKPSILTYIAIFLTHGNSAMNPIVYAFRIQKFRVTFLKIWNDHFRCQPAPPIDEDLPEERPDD

[2] = target: T1, Adenosine receptor A1 (Homo sapiens); experiment: Allosteric modulation at human adenosine A1 receptor expressed in CHO FlpIn cells assessed as increase in EC50 concentration of N(6)-(R-phenylisopropyl)adenosine receptor agonist-induced ERK1/2 phosphorylation at 10 uM relative to control; assay type: functional, cell-based
[3] = target: T1, Adenosine receptor A1 (Homo sapiens); experiment: Allosteric modulation at human adenosine A1 receptor expressed in CHO FlpIn cells assessed as increase in ERK1/2 phosphorylation at 3 to 10 uM relative to control; assay type: cell-based
[4] = target: T1, Adenosine receptor A1 (Homo sapiens); experiment: Allosteric modulation at human adenosine A1 receptor expressed in CHO FlpIn cells assessed as increase in leftward shift of N(6)-(R-phenylisopropyl)adenosine-mediated ERK1/2 phosphorylation curve at 0.1 to 10 uM; assay type: cell-based
[5] = target: T1, Adenosine receptor A1 (Homo sapiens); experiment: Binding affinity to human adenosine A1 receptor allosteric site expressed in CHO FlpIn cells; assay type: cell-based

SMILES | Activity [1] | Activity [2] | Activity [3] | Activity [4] | pKb [5]
Nc1sc2c(c1C(=O)c1ccc(Cl)cc1)CCCCCC2 | 56% | 63% | Active |  | 
NC(=O)c1c(N)sc2c1CCCCC2 | 47% | 50% | inactive |  | 
Cc1ccc(C(=O)c2c(N)sc3c2CCCCCC3)cc1 | 56% | 75% | inactive |  | 
Nc1sc2c(c1C(=O)NNc1ccccc1)CCCCC2 | 44% | 42% | inactive |  | 
Nc1sc2c(c1C(=O)NNc1ccccc1)CCCCCC2 | 47% | 43% | inactive |  | 
Cc1ccc(C(=O)c2c(N)sc3c2CCCC3)cc1 | 70% | 91% | Active | Active | 5.1
Nc1sc2c(c1C(=O)c1cccc(C(F)(F)F)c1)CCCCCC2 | 57% | 65% | inactive | Active | 5.07
Nc1sc2c(c1C(=O)c1cccc(C(F)(F)F)c1)CCCCC2 | 53% | 74% | inactive |  | 
Nc1sc2c(c1C(=O)NCc1cccc(Cl)c1)CCCCCC2 | 49% | 47% | inactive |  | 
Nc1sc2c(c1C(=O)c1ccccc1)CCCCCC2 | 49% | 36% | inactive |  | 
Nc1sc2c(c1C(=O)c1cccc(C(F)(F)F)c1)CCCC2 | 73% | 88% | Active |  | 
NNC(=O)c1c(N)sc2c1CCCCCC2 | 48% | 48% | inactive |  | 
Nc1sc2c(c1C(=O)NCc1ccccc1)CCCCCC2 | 48% | 50% | inactive |  | 
Cc1ccc(C(=O)c2c(N)sc3c2CCCCC3)cc1 | 55% | 68% | inactive |  | 
NNC(=O)c1c(N)sc2c1CCCCC2 | 52% | 51% | inactive |  | 
Cc1ccc(C(=O)c2c(N)sc3c2CCC3)cc1 | 50% | 56% | inactive |  | 
Nc1sc2c(c1C(=O)c1cccc(C(F)(F)F)c1)CCC2 | 75% | 98% | Active |  | 
NC(=O)c1c(N)sc2c1CCCCCC2 | 48% | 48% | inactive |  | 

From ChEMBL document CHEMBL1777783, “The synthesis and biological evaluation of 2-amino-4,5,6,7,8,9-hexahydrocycloocta[b]thiophenes as allosteric modulators of the A1 adenosine receptor” (Bioorg Med Chem Lett, 2011)
